Data on one compound can be found in patent EP0888346B1, “CORALYNE ANALOGS AS TOPOISOMERASE INHIBITORS” (RUTGERS, THE STATE UNIVERSITY OF NEW JERSEY, priority 1996, dated 1997).

Converted amounts (≈) assume the structure as drawn.

Assay [1] relates to human epidermoid carcinoma KB 3-1 cell line. Put plainly: MTA cytotoxicity assay, epidermoid carcinoma cells. The assay is classed as cell-based. Particulars: KB 3-1, 96 h, read-out: Cytotoxicity KB3-1. The method, then: The results were plotted and the IC50 then measured.
The coralyne analog 7c was tested for its effectiveness against glioblastoma cells. The assay used was similar to that described above for the RPMI-8402 cell line. The results are shown in table 2 below which compares the effect of Compound 7c against the leukemia cell line (RPMI 8402), epidermal carncinoma (KB3-1) and glioblastoma (SF-268): Table 2

Assay [2] relates to camptothecin-resistant CPT-K5 cells. Put plainly: MTT-microtiter plate tetrazolinium cytotoxicity assay (MTA), camptothecin-resistant cells. Conditions: Homo sapiens, CPT-K5, 96 h, read-out: Cytotoxicity IC50 CPT-K5. The protocol:
The IC50 of the drugs tested were determined by the MTT-microtiter plate tetrazolinium cytotoxicity assay (MTA) (Mosmann, T., J. Immunol. Methods 65:55-63 (1983); Denizot et al., J. Immunol. Methods 89:271-277 (1986)). Human lymphoblast RPMI 8402 cells and their camptothecin-resistant CPT-K5 cells (Andoh et al., Proc. Natl. Acad. Sci., USA 84:5565-5569 (1987)) were kindly provided by Dr. Toshiwo Andoh (Aichi Cancer Center Research Institute, Nagoya, Japan). […] Cells (2000 cells/well, seeded in […] growth medium) were grown in suspension at 37°C in 5% CO2 and maintained by regular passage in RPMI medium supplemented with 10% heat inactivated fetal bovine serum, L-glutamine (2 mM), penicillin (100 U/ml), and streptomycin (0.1 mg/ml). The cells were exposed continuously for 4 days to different drug concentrations, and assayed at the end of the fourth day. Each concentration and the no drug control were repeated at least twice in 6 replica wells. The results were plotted and the IC50 then measured. The drug sensitive human epidermoid carcinoma KB 3-1 cell line and its vinblastine-selected multidrug-resistant variant KB-V1 cells (Akiyama et al., Genetics 11:117-126 (1985)) were kindly provided by Dr. Michael Gottesmann (National Cancer Institute). They were grown as monolayer cultures at 37°C in 5% CO2 and maintained by regular passage in Dulbecco's minimal essential medium supplemented with 10% heat inactivated fetal bovine serum. KB-V1 cells were maintained in the presence of […] vinblastine.

For `CC[C@@]1(O)C(=O)OCc2c1cc1n(c2=O)Cc2cc3ccccc3nc2-1` [CPT, camptothecin, reference compound], the IC50 in assay [1] was 4 ng/mL (≈ 0.0115 µM); in assay [2], above 10 µM.
